Laboratory results as given in ChEMBL document CHEMBL1137749, “Antifungal unsaturated cyclic Mannich ketones and amino alcohols: study of mechanism of action” (2009).
Values after ≈ are worked out from the molar mass of the structure shown. Active and inactive are the calls of the source. No cut-off for these calls is given here.

How the values were obtained:
Candida albicans [1] = assay: Antifungal activity against Candida albicans ATCC 90028 assessed as changes in fungal protein expression at 2 times MIC after 1 hr by electrophoresis-based microchip technology; assay type: functional, organism-based
Candida albicans [2] = assay: Antifungal activity against Candida albicans ATCC 90028 after 48 hrs by macro tube dilution method; assay type: functional; conditions: ATCC 90028, 48 h
Candida albicans [3] = assay: Antifungal activity against Candida albicans ATCC 90028 assessed as changes in fungal protein expression at 0.5 time MIC after 1 hr by electrophoresis-based microchip technology; assay type: functional, organism-based
Saccharomyces cerevisiae = assay: Antifungal activity against Saccharomyces cerevisiae after 48 hrs by macro tube dilution method; assay type: functional
Nakaseomyces glabratus = assay: Antifungal activity against Candida glabrata ATCC 3916 after 48 hrs by macro tube dilution method; assay type: functional; conditions: ATCC 3916, 48 h
Candida parapsilosis = assay: Antifungal activity against Candida parapsilosis ATCC 22019 after 48 hrs by macro tube dilution method; assay type: functional; conditions: Lodderomyces parapsilosis, ATCC 22019, 48 h
Aspergillus sp. = assay: Antifungal activity against Aspergillus sp. after 48 hrs by macro tube dilution method; assay type: functional
Pichia kudriavzevii = assay: Antifungal activity against Candida krusei ATCC 30068 after 48 hrs by macro tube dilution method; assay type: functional; conditions: ATCC 30068, 48 h
Candida albicans [4] = assay: Antifungal activity against Candida albicans ATCC 90028 assessed as inhibition of fungal ergosterol synthesis at 25 ug/mL after 16 hrs by UV spectrophotometry; assay type: functional, organism-based
Candida albicans [5] = assay: Antifungal activity against Candida albicans ATCC 90028 assessed as number of fungal cells without pseudohyphae out of 100 cells at 0.5 time MIC after 0 to 6 hrs by light microscopy; assay type: functional
Candida albicans [6] = assay: Antifungal activity against Candida albicans ATCC 90028 assessed as number of fungal cells with pseudohyphae out of 100 cells at 0.5 time MIC after 0 to 6 hrs by light microscopy; assay type: functional
Candida albicans [7] = assay: Inhibition of chitin synthase in Candida albicans ATCC 90028 at 1.5 times MIC by liquid scintillation analyzer relative to nikkomycin
Rattus norvegicus = species on record: Rattus norvegicus; assay: Inhibition of lactate dehydrogenase in Wistar rat kidney at 1.5 times MIC relative to control
Candida albicans [8] = assay: Antifungal activity against Candida albicans ATCC 90028 assessed as inhibition of fungal ergosterol synthesis at 0.5 times MIC after 16 hrs by UV spectrophotometry; assay type: functional, organism-based
Candida albicans [9] = assay: Antifungal activity against Candida albicans ATCC 90028 assessed as increase in 117 kDa fungal protein at 0.5 time MIC after 1 hr by electrophoresis-based microchip technology; assay type: functional, organism-based
Candida albicans [10] = assay: Antifungal activity against Candida albicans ATCC 90028 assessed as increase in 147 kDa fungal protein at 0.5 time MIC after 1 hr by electrophoresis-based microchip technology; assay type: functional, organism-based
Candida albicans [11] = assay: Antifungal activity against Candida albicans ATCC 90028 assessed as increase in 104 kDa fungal protein at 2 times MIC after 1 hr by electrophoresis-based microchip technology; assay type: functional, organism-based
Candida albicans [12] = assay: Antifungal activity against Candida albicans ATCC 90028 assessed as increase in 104 kDa fungal protein at 0.5 time MIC after 1 hr by electrophoresis-based microchip technology; assay type: functional, organism-based
Candida albicans [13] = assay: Antifungal activity against Candida albicans ATCC 90028 assessed as increase in 147 kDa fungal protein at 2 times MIC after 1 hr by electrophoresis-based microchip technology; assay type: functional, organism-based
Candida albicans [14] = assay: Antifungal activity against Candida albicans ATCC 90028 assessed as increase in 124 kDa fungal protein at 0.5 time MIC after 1 hr by electrophoresis-based microchip technology; assay type: functional, organism-based
Candida albicans [15] = assay: Antifungal activity against Candida albicans ATCC 90028 assessed as increase in 124 kDa fungal protein at 2 times MIC after 1 hr by electrophoresis-based microchip technology; assay type: functional, organism-based
Candida albicans [16] = assay: Antifungal activity against Candida albicans ATCC 90028 assessed as increase in 117 kDa fungal protein at 2 times MIC after 1 hr by electrophoresis-based microchip technology; assay type: functional, organism-based
Candida albicans [17] = assay: Antifungal activity against Candida albicans ATCC 90028 assessed as inhibition of fungal ergosterol synthesis at 1.56 ug/mL after 16 hrs by UV spectrophotometry; assay type: functional, organism-based

SMILES | MIC (Candida albicans [2]) | MIC (Saccharomyces cerevisiae) | MIC (Nakaseomyces glabratus) | MIC (Candida parapsilosis) | MIC (Aspergillus sp.) | MIC (Pichia kudriavzevii) | inhibition (Candida albicans [7]) | also measured
COc1ccccc1/C=C1\CCC(CN2CCCCC2)C1=O (configuration not stated) | 6.25 µg/mL (≈ 20.9 µM) | 6.25 µg/mL (≈ 20.9 µM) | 12.5 µg/mL (≈ 41.7 µM) | 12.5 µg/mL (≈ 41.7 µM) | 100 µg/mL (≈ 334 µM) | 12.5 µg/mL (≈ 41.7 µM) | – | Activity (Candida albicans [1]): inactive; Activity (Candida albicans [3]): inactive
O=C1/C(=C/c2ccccc2)CCCCC1CN1CCCCC1 (configuration not stated) | 50 µg/mL (≈ 168 µM) | 100 µg/mL (≈ 336 µM) | 100 µg/mL (≈ 336 µM) | 200 µg/mL (≈ 672 µM) | 100 µg/mL (≈ 336 µM) | 100 µg/mL (≈ 336 µM) | 24% | Activity (Candida albicans [4]): inactive; Activity (Candida albicans [1]): inactive; Activity (Candida albicans [3]): inactive; Activity (Candida albicans [5]): 39; Activity (Candida albicans [6]): 47; inhibition (Rattus norvegicus): inactive
O=C1/C(=C/c2ccccc2)CCCCC1CN1CCOCC1 (configuration not stated) | 25 µg/mL (≈ 83.5 µM) | 50 µg/mL (≈ 167 µM) | > 200 µg/mL | 100 µg/mL (≈ 334 µM) | 200 µg/mL (≈ 668 µM) | 100 µg/mL (≈ 334 µM) | 24% | Activity (Candida albicans [8]): inactive; inhibition (Rattus norvegicus): inactive
O=C1/C(=C/c2ccc3c(c2)OCO3)CCC1CN1CCOCC1 (configuration not stated) | 1.56 µg/mL (≈ 4.95 µM) | 3.12 µg/mL (≈ 9.91 µM) | 3.12 µg/mL (≈ 9.91 µM) | 6.25 µg/mL (≈ 19.8 µM) | > 200 µg/mL | 6.25 µg/mL (≈ 19.8 µM) | – | Activity (Candida albicans [8]): inactive
COc1ccc(/C=C2\CC[C@@H](CN3CCCCC3)[C@@H]2O)cc1 (relative stereo) | 100 µg/mL (≈ 332 µM) | 100 µg/mL (≈ 332 µM) | > 200 µg/mL | > 200 µg/mL | 200 µg/mL (≈ 664 µM) | 100 µg/mL (≈ 332 µM) | – | Activity (Candida albicans [9]): Active; Activity (Candida albicans [10]): inactive; Activity (Candida albicans [11]): inactive; Activity (Candida albicans [12]): Active; Activity (Candida albicans [13]): inactive; Activity (Candida albicans [14]): Active; Activity (Candida albicans [15]): Active; Activity (Candida albicans [16]): Active
OC(Cn1cncn1)(Cn1cncn1)c1ccc(F)cc1F | – | – | – | – | – | – | – | Activity (Candida albicans [17]): inactive
COc1ccc(/C=C2\CCC(CN3CCOCC3)C2=O)cc1 (configuration not stated) | 3.12 µg/mL (≈ 10.4 µM) | 1.56 µg/mL (≈ 5.18 µM) | 6.25 µg/mL (≈ 20.7 µM) | 6.25 µg/mL (≈ 20.7 µM) | 200 µg/mL (≈ 664 µM) | 12.5 µg/mL (≈ 41.5 µM) | – | Activity (Candida albicans [1]): inactive; Activity (Candida albicans [3]): inactive
C[C@@H]1[C@H](O)[C@@H](C)/C=C/C=C/C=C/C=C/C=C/C=C/C=C/[C@H](O[C@@H]2O[C@H](C)[C@@H](O)[C@H](N)[C@@H]2O)C[C@@H]2O[C@](O)(C[C@@H](O)C[C@@H](O)[C@H](O)CC[C@@H](O)C[C@@H](O)CC(=O)O[C@H]1C)C[C@H](O)[C@H]2C(=O)O [AMPHOTERICIN B] | – | – | – | – | – | – | – | Activity (Candida albicans [5]): 77; Activity (Candida albicans [6]): 18
COc1ccc(/C=C2\CCC(CN3CCCCC3)C2=O)cc1 (configuration not stated) | 12.5 µg/mL (≈ 41.7 µM) | 3.12 µg/mL (≈ 10.4 µM) | 6.25 µg/mL (≈ 20.9 µM) | 6.25 µg/mL (≈ 20.9 µM) | 100 µg/mL (≈ 334 µM) | 12.5 µg/mL (≈ 41.7 µM) | – | Activity (Candida albicans [9]): Active; Activity (Candida albicans [10]): Active; Activity (Candida albicans [11]): Active; Activity (Candida albicans [12]): Active; Activity (Candida albicans [13]): Active; Activity (Candida albicans [14]): Active; Activity (Candida albicans [15]): Active; Activity (Candida albicans [16]): Active
COc1ccccc1/C=C1\CCC(CN2CCOCC2)C1=O (configuration not stated) | 3.12 µg/mL (≈ 10.4 µM) | 6.25 µg/mL (≈ 20.7 µM) | 12.5 µg/mL (≈ 41.5 µM) | 12.5 µg/mL (≈ 41.5 µM) | > 200 µg/mL | 3.12 µg/mL (≈ 10.4 µM) | – | Activity (Candida albicans [8]): inactive; Activity (Candida albicans [5]): 81; Activity (Candida albicans [6]): 9
O=C1/C(=C/c2ccccc2)CCC1CN1CCc2ccccc2C1 (configuration not stated) | 12.5 µg/mL (≈ 39.4 µM) | 1.56 µg/mL (≈ 4.91 µM) | 6.25 µg/mL (≈ 19.7 µM) | 12.5 µg/mL (≈ 39.4 µM) | 200 µg/mL (≈ 630 µM) | 12.5 µg/mL (≈ 39.4 µM) | – | Activity (Candida albicans [9]): Active; Activity (Candida albicans [10]): Active; Activity (Candida albicans [11]): Active; Activity (Candida albicans [12]): Active; Activity (Candida albicans [13]): Active; Activity (Candida albicans [14]): Active; Activity (Candida albicans [15]): Active; Activity (Candida albicans [16]): Active
COc1cccc(/C=C2\CCC(CN3CCOCC3)C2=O)c1 (configuration not stated) | 3.12 µg/mL (≈ 10.4 µM) | 1.56 µg/mL (≈ 5.18 µM) | 3.12 µg/mL (≈ 10.4 µM) | 3.12 µg/mL (≈ 10.4 µM) | 50 µg/mL (≈ 166 µM) | 3.12 µg/mL (≈ 10.4 µM) | inactive | Activity (Candida albicans [17]): inactive; Activity (Rattus norvegicus): inactive
O=C1/C(=C/c2ccccc2)CCCCCC1CN1CCCCC1 (configuration not stated) | 100 µg/mL (≈ 321 µM) | 100 µg/mL (≈ 321 µM) | > 200 µg/mL | 200 µg/mL (≈ 642 µM) | 100 µg/mL (≈ 321 µM) | 200 µg/mL (≈ 642 µM) | 50% | inhibition (Rattus norvegicus): 30%
O=C1/C(=C/c2ccccc2)CCC1CN1CCCC1 (configuration not stated) | 6.25 µg/mL (≈ 24.5 µM) | 3.12 µg/mL (≈ 12.2 µM) | 12.5 µg/mL (≈ 49 µM) | 6.25 µg/mL (≈ 24.5 µM) | 50 µg/mL (≈ 196 µM) | 6.25 µg/mL (≈ 24.5 µM) | – | Activity (Candida albicans [1]): inactive; Activity (Candida albicans [3]): inactive
O[C@H]1/C(=C/c2ccccc2)CCCCC[C@H]1CN1CCCCC1 (relative stereo) | 100 µg/mL (≈ 319 µM) | 6.25 µg/mL (≈ 19.9 µM) | 50 µg/mL (≈ 159 µM) | 50 µg/mL (≈ 159 µM) | 50 µg/mL (≈ 159 µM) | 6.25 µg/mL (≈ 19.9 µM) | – | Activity (Candida albicans [7]): inactive
O=C1/C(=C/c2ccccc2)CCCCCC1CN1CCOCC1 (configuration not stated) | > 200 µg/mL | 200 µg/mL (≈ 638 µM) | > 200 µg/mL | > 200 µg/mL | > 200 µg/mL | > 200 µg/mL | Active | –
O=C1/C(=C/c2ccccc2)CCC1CN1CCNCC1 (configuration not stated) | 6.25 µg/mL (≈ 23.1 µM) | 1.56 µg/mL (≈ 5.77 µM) | 12.5 µg/mL (≈ 46.2 µM) | 6.25 µg/mL (≈ 23.1 µM) | 100 µg/mL (≈ 370 µM) | 12.5 µg/mL (≈ 46.2 µM) | inactive | Activity (Candida albicans [1]): inactive; Activity (Candida albicans [3]): inactive
